Laboratory results: ChEMBL document CHEMBL5046268, “Synthesis, Biological Evaluation, and Molecular Modeling Studies of 3,4-Diarylpyrazoline Series of Compounds as Potent, Nonbrain Penetrant Antagonists of Cannabinoid-1 (CB1R) Receptor with Reduced Lipophilicity” (J Med Chem, 2022)
Activity calls are given as the source filed them. The calls are words filed in the database; no cut-off is given here.

Tests used:
[1] = target: T1, Cannabinoid receptor 1 (Homo sapiens, UniProt P21554); experiment: Displacement of [3H]- CP55940 from human CB1R expressed in CHO-K1 cells membrane by Cheng-Prusoff equation analysis; type: cell membranes, Cell membrane; conditions: read-out: Ki
[2] = Drug distribution in C57BL/6J mouse plasma at 10 mg/kg, ip incubated for 1 hrs by LC/MS/MS analysis; type: ADME, organism-based; conditions: in vivo
[3] = Ratio of drug level in C57BL/6J mouse brain to plasma at 10 mg/kg, ip incubated for 1 hrs by LC/MS/MS analysis; type: ADME, organism-based; conditions: read-out: BPR
[4] = target: Cannabinoid receptor 2 (Homo sapiens, UniProt P34972); experiment: Displacement of [3H]- CP55940 from human CB2R expressed in CHO-K1 cells membrane by Cheng-Prusoff equation analysis; type: cell membranes, Cell membrane; conditions: read-out: Ki
[5] = target: T1, Cannabinoid receptor 1; experiment: Antagonist activity at human CB1R expressed in CHO-K1 cell membranes assessed as stimulation of [35S]-GTPgammaS binding by liquid scintillation counting method; type: functional, Cell membrane; conditions: read-out: IC50
[6] = Drug distribution in C57BL/6J mouse brain at 10 mg/kg, ip incubated for 1 hrs by LC/MS/MS analysis; type: ADME, organism-based; conditions: in vivo
[7] = Drug distribution in C57BL/6J mouse liver at 10 mg/kg, ip incubated for 1 hrs by LC/MS/MS analysis; type: ADME, organism-based; conditions: in vivo
[8] = target: Nitric oxide synthase, inducible (Homo sapiens) (UniProt P35228); experiment: Inhibition of recombinant iNOS (unknown origin) assessed as reduction in L-[3H]-citrulline level using L-[3H]-arginine as substrate at 10 uM by Enzymatic NOS activity assay
[9] = Stability in C57BL/6J mouse plasma assessed as half life at 3 mg/kg, ip by LC-MS/MS analysis; type: ADME, organism-based
[10] = tested on: Mus musculus; experiment: Anti-obesity activity in high fat diet-induced obese C57BL/6J mouse assessed as reduction in body weight at 10 mg/kg, ip measured every daily for 1 weeks; type: functional; conditions: 168 h
[11] = Microsomal stability in human liver microsomes assessed as half life at 3 mg/kg, ip by LC-MS/MS analysis; type: ADME, Microsome
[12] = tested on: Mus musculus; experiment: Anti-obesity activity in high fat diet-induced obese C57BL/6J mouse assessed as reduction in food intake at 10 mg/kg, ip measured every daily for 1 weeks; type: functional, organism-based
[13] = Protein binding in mouse plasma assessed as […] at 5 uM and incubated for 4 hrs by LC-MS/MS analysis; type: ADME, cell-free; conditions: read-out: PPB
[14] = Microsomal stability in C57BL/6J mouse liver microsomes assessed as half life at 3 mg/kg, ip by LC-MS/MS analysis; type: ADME, Microsome
[15] = target: T1, Cannabinoid receptor 1; experiment: Inverse agonist activity at human CB1R expressed in CHO-K1 cell membrane assessed as […] in [35S]GTPgammaS binding; type: functional, cell membranes
[16] = Protein binding in human plasma assessed as […] at 5 uM for 4 hrs by LC-MS/MS analysis; type: ADME, cell-free; conditions: read-out: PPB
[17] = tested on: Mus musculus; experiment: Anti-obesity activity in high fat diet-induced obese C57BL/6J mouse assessed as reduction in body weight at 3 mg/kg, ip dosed daily for 1 week; type: functional; conditions: 168 h, time 1 weeks
[18] = tested on: Mus musculus; experiment: Anti-obesity activity in high fat diet-induced obese C57BL/6J mouse assessed as reduction in food intake at 3 mg/kg, ip dosed daily for 1 week; type: functional, organism-based; conditions: time 1.0 weeks

Cannabinoid receptor 2, sequence (P34972 whole entry): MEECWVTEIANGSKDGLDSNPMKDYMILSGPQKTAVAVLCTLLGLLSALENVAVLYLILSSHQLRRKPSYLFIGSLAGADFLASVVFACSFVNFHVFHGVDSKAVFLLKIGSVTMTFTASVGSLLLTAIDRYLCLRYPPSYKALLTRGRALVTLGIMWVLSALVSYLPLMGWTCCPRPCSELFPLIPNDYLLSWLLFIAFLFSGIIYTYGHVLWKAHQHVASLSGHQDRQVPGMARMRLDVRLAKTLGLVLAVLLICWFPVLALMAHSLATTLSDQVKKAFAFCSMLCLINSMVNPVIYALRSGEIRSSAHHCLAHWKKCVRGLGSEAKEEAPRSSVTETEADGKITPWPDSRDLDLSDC
T1 sequence (P21554 whole entry): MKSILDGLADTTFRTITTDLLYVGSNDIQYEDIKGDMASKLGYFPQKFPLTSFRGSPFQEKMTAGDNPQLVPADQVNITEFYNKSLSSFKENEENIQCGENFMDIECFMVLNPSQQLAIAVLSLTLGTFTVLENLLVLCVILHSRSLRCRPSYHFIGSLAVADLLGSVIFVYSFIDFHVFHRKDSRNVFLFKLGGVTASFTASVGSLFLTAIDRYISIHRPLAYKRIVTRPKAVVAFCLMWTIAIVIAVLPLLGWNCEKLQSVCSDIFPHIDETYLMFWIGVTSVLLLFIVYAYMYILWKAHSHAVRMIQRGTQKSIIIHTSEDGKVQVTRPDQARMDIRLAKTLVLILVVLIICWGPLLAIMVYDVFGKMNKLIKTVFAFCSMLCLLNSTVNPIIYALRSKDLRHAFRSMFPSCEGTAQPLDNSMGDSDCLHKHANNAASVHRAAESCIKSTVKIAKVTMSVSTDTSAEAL
Nitric oxide synthase, inducible (Homo sapiens), sequence (P35228 whole entry): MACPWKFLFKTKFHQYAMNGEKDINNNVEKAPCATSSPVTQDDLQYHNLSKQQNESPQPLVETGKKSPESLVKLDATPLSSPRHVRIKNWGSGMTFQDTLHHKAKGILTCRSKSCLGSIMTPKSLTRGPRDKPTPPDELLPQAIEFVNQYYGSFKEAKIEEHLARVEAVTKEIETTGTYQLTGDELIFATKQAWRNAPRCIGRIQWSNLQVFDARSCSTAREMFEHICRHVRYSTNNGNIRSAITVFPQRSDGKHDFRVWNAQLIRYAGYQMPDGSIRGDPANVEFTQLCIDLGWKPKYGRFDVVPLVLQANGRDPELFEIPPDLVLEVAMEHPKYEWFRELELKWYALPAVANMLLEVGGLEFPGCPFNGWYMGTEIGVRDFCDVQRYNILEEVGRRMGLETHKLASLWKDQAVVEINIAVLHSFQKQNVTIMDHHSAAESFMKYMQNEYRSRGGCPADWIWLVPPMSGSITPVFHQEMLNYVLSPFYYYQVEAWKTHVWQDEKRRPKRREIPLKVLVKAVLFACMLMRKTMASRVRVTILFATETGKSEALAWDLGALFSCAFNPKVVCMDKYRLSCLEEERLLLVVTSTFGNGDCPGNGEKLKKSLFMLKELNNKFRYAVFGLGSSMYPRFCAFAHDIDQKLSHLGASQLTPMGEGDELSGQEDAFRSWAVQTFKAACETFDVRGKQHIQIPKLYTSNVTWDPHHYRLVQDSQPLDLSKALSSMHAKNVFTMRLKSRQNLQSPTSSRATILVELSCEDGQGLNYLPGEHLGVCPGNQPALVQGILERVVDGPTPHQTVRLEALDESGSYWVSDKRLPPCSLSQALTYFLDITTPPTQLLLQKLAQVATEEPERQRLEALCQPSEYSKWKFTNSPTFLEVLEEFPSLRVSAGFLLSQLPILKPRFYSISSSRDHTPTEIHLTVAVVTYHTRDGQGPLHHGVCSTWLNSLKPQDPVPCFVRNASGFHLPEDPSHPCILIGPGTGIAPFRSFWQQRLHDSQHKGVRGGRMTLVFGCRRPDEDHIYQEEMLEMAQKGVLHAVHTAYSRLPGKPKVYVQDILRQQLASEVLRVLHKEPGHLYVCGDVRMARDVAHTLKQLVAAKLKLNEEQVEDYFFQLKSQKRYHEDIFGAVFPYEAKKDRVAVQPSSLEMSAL

Compound	Ki [1]	Ki [4]	IC50 [5]	other results
CS/C(N)=N/C(=N/S(=O)(=O)N1CCCC1)N1CC(c2ccccc2)C(c2ccc(Cl)cc2)=N1 (stereo not drawn)	23 nM	> 1000 nM	462 nM	inhibition [8]: Active
CC(C)(C)/C(N)=N\C(=N\S(=O)(=O)N1CCCCC1)N1CC(c2ccccc2)C(c2ccc(Cl)cc2)=N1 (stereo not drawn)	23 nM	> 1000 nM	129 nM	–
CCN(CC)S(=O)(=O)/N=C(/N=C(/C)N)N1C[C@H](c2ccccc2)C(c2ccc(Cl)cc2)=N1	1.2 nM	66 nM	1.2 nM	half-life [9]: < 120 min; inhibition in vivo at 10 mg/kg [10]: 8%; half-life [11]: > 2 min; Activity [12]: Active; fraction unbound at 4 h, 5 µM [13]: ≤ 0.006; half-life [14]: > 2 min; IC50 [15]: 0.8 nM; fraction unbound at 4 h, 5 µM [16]: ≤ 0.006
C/C(N)=N/C(=N/S(=O)(=O)N1CCOCC1)N1CC(c2ccccc2)C(c2ccc(Cl)cc2)=N1 (stereo not drawn)	31 nM	> 1000 nM	63 nM	–
N/C(=N\C(=N\S(=O)(=O)N1CCOCC1)N1CC(c2ccccc2)C(c2ccc(Cl)cc2)=N1)c1ccc(F)cc1 (stereo not drawn)	39.9 nM	> 1000 nM	19 nM	–
C/C(N)=N\C(=N\S(=O)(=O)N1CCCCC1)N1C[C@H](c2ccccc2)C(c2ccc(Cl)cc2)=N1	1.6 nM	43 nM	4 nM	half-life [9]: < 120 min; half-life [11]: > 2 min; fraction unbound at 4 h, 5 µM [13]: ≤ 0.006; inhibition in vivo at 3 mg/kg [17]: 8%; Activity [18]: Active; half-life [14]: > 2 min; IC50 [15]: 2 nM; fraction unbound at 4 h, 5 µM [16]: ≤ 0.006
CC(C)(C)/C(N)=N/C(=N/S(=O)(=O)N1CCC(F)(F)CC1)N1CC(c2ccccc2)C(c2ccc(Cl)cc2)=N1 (stereo not drawn)	21 nM	> 1000 nM	10 nM	Drug uptake [2]: Active; Kp at 1 h [3]: 0.14; Drug uptake [6]: Active; IC50 [15]: 3.2 nM; Drug uptake [7]: Active
CC(C)(C)/C(N)=N/C(=N/S(=O)(=O)N1CCOCC1)N1CC(c2ccccc2)C(c2ccc(Cl)cc2)=N1 (stereo not drawn)	> 100 nM	> 1000 nM	34 nM	–
CC(C)(C)/C(N)=N/C(=N/S(=O)(=O)N1CCCC1)N1CC(c2ccccc2)C(c2ccc(Cl)cc2)=N1 (stereo not drawn)	> 1000 nM	> 1000 nM	61 nM	inhibition [8]: Active

Now from value to molecule, other results behind:

Ki [1]	Ki [4]	IC50 [5]	Compound	other results
2.4 nM	> 100 nM	3.6 nM	CS/C(N)=N/C(=N/S(=O)(=O)N1CCC(C(F)(F)F)CC1)N1CC(c2ccccc2)C(c2ccc(Cl)cc2)=N1 (stereo not drawn)	Drug uptake [2]: Active; Kp at 1 h [3]: 0.036; Drug uptake [6]: Active; Drug uptake [7]: Active
14 nM	> 100 nM	127 nM	CS/C(N)=N\C(=N\S(=O)(=O)N1CCC(F)(F)CC1)N1CC(c2ccccc2)C(c2ccc(Cl)cc2)=N1 (stereo not drawn)	–
15 nM	> 100 nM	166 nM	CS/C(N)=N\C(=N\S(=O)(=O)N1CCCCC1)N1CC(c2ccccc2)C(c2ccc(Cl)cc2)=N1 (stereo not drawn)	–
19.8 nM	14 nM	2.77 nM	N/C(=N\C(=N\S(=O)(=O)N1CCC(C(F)(F)F)CC1)N1CC(c2ccccc2)C(c2ccc(Cl)cc2)=N1)c1ccc(F)cc1 (stereo not drawn)	–
5.5 nM	> 1000 nM	108 nM	CCN(CC)S(=O)(=O)/N=C(/N=C(\N)c1ccc(F)cc1)N1CC(c2ccccc2)C(c2ccc(Cl)cc2)=N1 (stereo not drawn)	inhibition [8]: Active
6.4 nM	36 nM	4 nM	N/C(=N/C(=N/S(=O)(=O)N1CCCCC1)N1CC(c2ccccc2)C(c2ccc(Cl)cc2)=N1)c1ccc(F)cc1 (stereo not drawn)	–
10 nM	> 1000 nM	375 nM	CCN(CC)S(=O)(=O)/N=C(/N=C(\N)C(C)(C)C)N1CC(c2ccccc2)C(c2ccc(Cl)cc2)=N1 (stereo not drawn)	inhibition [8]: Active
7.8 nM	17 nM	6 nM	N/C(=N/C(=N/S(=O)(=O)N1CCCCC1)N1CC(c2ccccc2)C(c2ccc(Cl)cc2)=N1)c1ccc(Cl)cc1 (stereo not drawn)	–
3.4 nM	> 100 nM	15 nM	C/C(N)=N\C(=N\S(=O)(=O)N1CCC(F)(F)CC1)N1CC(c2ccccc2)C(c2ccc(Cl)cc2)=N1 (stereo not drawn)	–
